Here are results for one compound from US20220274935A1, “PHARMACEUTICAL COMPOSITION FOR PREVENTING OR TREATING BONE DISEASES” (INDUSTRY FOUNDATION OF CHONNAM NATIONAL UNIVERSITY, priority 2019, published 2022).

Series [1] relates to RANKL-induced F-actin belt formation in BMM. The series is described as follows: F-actin ring (belt) formation ability of differentiated osteoclasts. In kind it is cell-based, mouse. The following applies: 6 μM; FIG. 5. How it is done:
In order to confirm the activity of differentiated osteoclasts, F-actin ring formation ability was measured. Specifically, BMM was seeded on a 12 mm cover glass with or without compounds (35D3: 6 μM, 35D5 and 35D35: 2 μM), followed by M-CSF and LANKL treatment. After the osteoclasts were formed in the control, the osteoclasts were fixed in 4.0% paraformaldehyde for 15 minutes, and then incubated in 5% FBS and blocked for about 60 minutes. After washing with PBS, rhodamine-conjugated phalloidin (1:40) was added to each well to visualize a F-actin belt. After 20 minutes, the cells were incubated along with a DAPI (1:5000) solution for 5 minutes. After washing three times with PBS, cells were observed using a fluorescence microscope.
A F-actin size was measured using Image J.

Series [2] has as its system F-actin formation in mouse bone marrow cells. The series is described as follows: F-actin staining for differentiation into multinuclear cells, 35D3 (PPOA). The series is classed as cell-based. The conditions noted are these: 6 uM, cultured 4 to 5 days; FIG. 18. How it is done: In order to determine the activity of differentiated osteoclasts, an ability of differentiating into multinuclear cells was measured through F-actin staining. 5×10^4 mouse bone marrow cells per well was put into a 24-well plate in which glass coated with L-Lysine was placed (Corning, 354085). At the same time, the cells were treated with 6 uM of 35D3 (PPOA) and then cultured for 4 to 5 days. The differentiated cells were fixed with 4% formaldehyde for 10 minutes and washed with PBS. For an antigen-antibody reaction, the cells were subjected to a reaction in 0.1% Triton-PBS for 20 minutes, followed by a reaction with 1% BSA for 1 hour. The F-actin antibody (Thermo Fisher Scientific, A12379) was reacted for 1 hour and then washed. Cell nuclei were stained through DAPI (4′,6-Diamidino-2-Phenylindole, Dilactate, Thermo Fisher Scientific, D3571) staining, and then, photographed under a microscope. As a result, it was confirmed that the size of F-actin was different depending on the presence or absence of 35D3 (PPOA) treatment (see FIG. 18).

For series [3], the system named is preosteoclasts. The series is described as follows: MTT assay for cytotoxicity assessment (cell viability). The conditions noted are these: MCSF 30 ng/mL, concentration of 10 uM. In kind it is cell-based, mouse. Here is the method:
MTT Assay for Cytotoxicity Assessment
After treatment of preosteoclasts with 35D35 or 35D3 (=PPOA) (1-10 uM), cell viability was evaluated. Specifically, 1×10^4 cells per well were put into a 96-well plate, and only MCSF (30 ng/mL) and PPOA were cultured by day under the indicated concentration conditions. Thereafter, a cell viability assay reagent (DoGen, EZ-3000) was used with 1/10 of the volume of the medium for treatment, and then the cells were incubated at 37° C. for 30 minutes and observed at […]. […] That is, it was confirmed that there was no cytotoxicity.

Series [4] concerns osteoclast differentiation of monocytes isolated from the mouse bone marrow. The experiment in a line: Osteoclast differentiation inhibitory ability of 35D3 (PPOA) through TRAP staining and analysis. In kind it is cell-based. The following applies: 3 μM, compared to group in which osteoclasts were differentiated normally. How it is done:
The bone marrow of a 12-week-old female mouse was isolated from the hip bone, femur and tibia, followed by culturing the same in α-MEM medium (Gibco, 12561-056, 10% fetal bovine serum, 1% penicillin/streptomycin) containing macrophage colony stimulating factor (M-CSF, PeproTech, cat #315-02, 30 ng/ml) for 3 days in order to isolate only monocytes. The isolated monocytes were treated with RANKL (PeproTech, cat #315-11, 50 ng/ml) to induce osteoclast differentiation. Then, 35D3 (PPOA) was also used for treatment, followed by culturing the cells for 3 days or 5 days.
1×10^4 monocytes isolated from the mouse bone marrow were put into a 96-well plate and treated with RANKL to confirm the effect of 35D3 (PPOA) (3 μM) on osteoclast differentiation ability.
The activity of tartrate-resistant acid phosphatase (TRAP), which has increased expression during osteoclast differentiation, was confirmed using a TRAP activity assay kit (Sigma-Aldrich, 387A-1kt), which is shown in FIG. 16.
After staining, the multinuclear cells formed during osteoclast differentiation were observed under a microscope, and 12 images per well were photographed and combined into one well image, and a differentiation area ratio per total area was confirmed using Image J software. The differentiation area ratio per total area is shown in A of FIG. 17, and the area of TRAP-positive cells (nuclear number >3) was compared with DMSO (100%) and presented as a relative value.
Further, the number of differentiated osteoclasts was counted and determined, and this was shown in B of FIG. 17, and cells in which the number of cell nuclei contained in the differentiated osteoclasts is in the range of 3-5, 6-10, 11-20, and 21 or more, were classified and shown in C of FIG. 17.

Series [5] has the same test system. The series is described as follows: Osteoclast differentiation inhibitory ability through TRAP staining and assay (RANKL-induced monocytes). In kind it is cell-based. The following applies: treated together with RANKL; compared to other derivatives; FIG. 1. Here is the method:
The bone marrow of a 10-week-old female mouse was isolated from the hip bone, femur and tibia, followed by culturing the same in α-MEM medium (Gibco, 12561-056, 10% fetal bovine serum, 1% penicillin/streptomycin) containing macrophage colony stimulating factor (M-CSF, PeproTech, 315-02, 30 ng/ml) for 3 days in order to isolate only monocytes. The isolated monocytes were treated with receptor activator of nuclear factor kappa B ligand (RANKL, PeproTech, 315-11, 50 ng/ml) to induce osteoclast differentiation. During RANKL treatment, each compound (35D35, 35D5, 35D3, and 35D8) was used for treatment and the cells were cultured for 3 or 5 days so as to confirm the degree of osteoclast differentiation.
1×10^4 monocytes isolated from the mouse bone marrow were put into a 96-well plate and treated with each compound (35D35, 35D5, 35D3, and 35D8) together with RANKL, thereby confirming the effects of each compound on osteoclast differentiation ability. Using the TRAP activity assay kit (Cosmo Bio, PMC-AK04F-COS), the activity of tartrate-resistant acid phosphatase (TRAP) with increased expression during osteoclast differentiation was confirmed. […] After staining, multinuclear cells formed during osteoclast differentiation were confirmed under a microscope. Further, each well was photographed and a differentiation area ratio per total area was determined using Image J software.
Further, the effects of the 35D35 compound having excellent osteoclast production inhibitory ability with respect to osteoclast differentiation period was investigated. Specifically, BMM was divided into 5 groups (Ctrl, Period I to IV), and cultured for 4 days in a culture medium containing 30 ng/mL M-CSF and 50 ng/mL RANKL. BMMs in Period I to IV groups were exposed to 1 μM 35D35 for 24 hours on different days, respectively. After 4 days, the cells of each group were fixed, followed by TRAP staining, and then, the presence of osteoclasts was confirmed.

The test system of series [6] is ovariectomized mouse model (OVX). The experiment in a line: Ovariectomized (OVX) mouse osteoporosis model, tibia micro-computed tomography. The conditions noted are these: OVX mice, intraperitoneal once every two days, after 4 weeks, microcomputer tomography; FIGS. 11 to 14. The series is classed as in vivo. How it is done: An ovariectomized mouse model (OVX, ovariectomized mouse) with osteoporosis due to estrogen deficiency after ovariectomy in 8-week-old female mouse were prepared. Compounds (35D35, 35D5, and 35D3), respectively, were injected intraperitoneally once every two days to the ovariectomized mouse model. After 4 weeks, the tibia of each mouse was analyzed for bone density by microcomputer tomography.
FIGS. 11 to 14 show the micro-computed tomography results (Sham: the control in which the ovaries were not removed) and graphs for analysis of the micro-computed tomography results with regard to the tibia of the mouse models (*P<0.05, **P<0.01, and ***P<0.001 vs. the control, OVX. BMD: trabecular bone mineral density).

The subject of series [7] is bone resorption ability of osteoclasts (mouse bone marrow cells). The experiment in a line: Bone resorption assay kit, 35D3 (PPOA). In kind it is cell-based. The following applies: exposure to 3, 6, and 10 μM; FIG. 19. How it is done: Further, the bone resorption ability was confirmed using a bone resorption assay kit (Cosmo Bio, CSR-BRA). Mouse bone marrow cells were seeded on a bone resorption assay plate 48 (2×10^4 cells/well) containing 30 ng/Ml of M-CSF. […] The next day, the culture supernatant from the cells was collected on a 96-well black polypropylene micro-well plate (Thermo Fisher Scientific Nunc, Waltham, Md., USA). After mixing 50 μL of 0.1 N of NaOH, fluorescence intensity was measured with a fluorescence plate reader (Molecular Devices, San Jose, Calif., USA-model: SpectraMax i3x); and the excitation and emission wavelengths were […] and 535 nm, respectively. The absorption area was calculated in consideration of 10 randomly selected pictures per well taken at 10 magnification using Image J software (https://imagej.nih.gov/ij).

In the case of `CC(=O)N1CCN(c2ccccc2NC(=O)COc2ccccc2Cl)CC1` [35D3, N-(2-(4-acetylpiperazin-1-yl)phenyl)-2-(2-chlorophenoxy)acetamide], in series [1], the “inhibition of RANKL-induced F-actin belt formation” value is reported as “excellent effects of inhibiting RANKL-induced F-actin belt formation”. For the same compound, the “differentiation into multinuclear cells (size of F-actin)” value in series [2] is listed as “could inhibit differentiation into multinuclear cells”. Further, the “cytotoxicity (cell viability, apoptosis effects)” value in series [3] is listed as “apoptosis effects were not exhibited”. In series [4] (FIG. 17), the giant multinuclear cells result is given as “significantly reduced” and the number of osteoclasts entry was “significantly reduced”. In addition, the “differentiation area (TRAP-positive cells per total area)” value in series [4] (FIGS. 16 and 17) is “significantly reduced”. Also, the “degree of osteoclast differentiation by TRAP staining” value in series [5] was “superior osteoclast differentiation inhibitory effects compared to other derivatives”. Besides, in series [6], the “bone density of tibia vs control (OVX)” value is on record as “did not exhibit higher” and the “bone volume of tibia vs control (OVX)” value is “did not exhibit higher”. Further, in series [7], the “proportion of bone resorption area” value is “significant decrease”.
